Source: ChEMBL document CHEMBL6121051, “Dendritic Antifungal Peptides as Potent Agents against Drug-Resistant Candida albicans and Biofilm” (J Med Chem, 2025)
Values after ≈ are worked out from the molar mass of the structure shown. Active and inactive are the calls of the source. No cut-off for these calls is given here. Positions of bridges follow the written chain, without caps; N, C: chain ends. Residues, ends and D or L forms follow the SMILES beside them. Groups on a side chain read outwards from the residue. Chains are numbered I, II in the order given. *: point of attachment. Lauroyl = CCCCCCCCCCCC(=O)*; Octanoyl = CCCCCCCC(=O)*; Butyryl = CCCC(=O)*

Assays:
Candida albicans [1] = test: (§1) Antifungal activity against fluconazole-resistant Candida albicans 56214 infected in ICR mouse assessed as reduction in severity of skin infection at 1 mg/ml administered topically bid for 3 days starting at 12 hrs post-infection and measured after 7 days by PAS staining based analysis; assay type: functional, organism-based; conditions: time 7.0 day
Candida albicans [2] = test: Antifungal activity against fluconazole-resistant Candida albicans 56214 infected in ICR mouse assessed as reduction in TNF-alpha expression in skin wound at 1 mg/ml administered topically bid for 3 days starting at 12 hrs post-infection and measured after 7 days by immunofluorescence analysis; assay type: functional, organism-based; conditions: time 7.0 day
Candida albicans [3] = test: Antifungal activity against fluconazole-resistant Candida albicans 56214 infected in ICR mouse assessed as wound healing with appearance of new skin tissue at 1 mg/ml administered topically bid for 3 days starting at 12 hrs post-infection and measured for 6 days; assay type: functional, organism-based; conditions: time 6.0 day
Candida albicans [4] = test: as §1, with “in oxidative stress by measuring decrease in ROS accumulation in” for “in severity of”, “skin wounds” for “skin infection”, “by fluorescence” for “by PAS”; assay type: functional, organism-based; conditions: time 7.0 day
Candida albicans [5] = test: Antifungal activity against fluconazole-resistant Candida albicans 56214 infected in ICR mouse assessed as elimination of fungal hyphae on the infected skin at 1 mg/ml administered topically bid for 3 days starting at 12 hrs post-infection and measured after 7 days by PAS staining; assay type: functional, organism-based; conditions: time 7.0 day
Candida albicans [6] = test: Antifungal activity against fluconazole-resistant Candida albicans 56214 infected in ICR mouse assessed as reduction in IL-6 expression in skin wound at 1 mg/ml administered topically bid for 3 days starting at 12 hrs post-infection and measured after 7 days by immunofluorescence analysis; assay type: functional, organism-based; conditions: time 7.0 day
Candida albicans [7] = test: Antifungal activity against fluconazole-resistant Candida albicans 56214 assessed as inhibition of fungal growth incubated for 48 hrs; assay type: functional
Candida albicans [8] = test: Antifungal activity against Candida albicans 58288 assessed as inhibition of fungal growth incubated for 48 hrs; assay type: functional
HEK-293T = test: Cytotoxicity against human HEK293T cells assessed as cell viability at 8 to 128 ug/ml incubated for 4 hrs by MTT assay; assay type: toxicity, cell-based; conditions: dose 8-128 µg/ml
Candida albicans [9] = test: Antifungal activity against Candida albicans SP 3903 assessed as inhibition of fungal growth incubated for 48 hrs; assay type: functional
[10] = Toxicity against human RBC assessed as hemolysis rate at 128 ug/ml incubated for 1 hr; assay type: cell-based, Erythrocyte; conditions: red blood cells (RBC), dose 128 µg/ml, read-out: Activity
Candida albicans [11] = test: Antifungal activity against Candida albicans 14936 assessed as inhibition of fungal growth incubated for 48 hrs; assay type: functional
Candida albicans [12] = test: Antifungal activity against Candida albicans SP 3931 assessed as inhibition of fungal growth incubated for 48 hrs; assay type: functional
[13] = Cytotoxicity against human HEK293T cells assessed as cell survival rate at 128 ug/ml incubated for 4 hrs by MTT assay; assay type: toxicity, cell-based, HEK-293T; conditions: dose 128 µg/ml, read-out: Activity
Candida albicans [14] = test: Antifungal activity against Candida albicans 17546 assessed as inhibition of fungal growth incubated for 48 hrs; assay type: functional
Candida albicans [15] = test: Antifungal activity against Candida albicans 2.3989 assessed as inhibition of fungal growth incubated for 48 hrs; assay type: functional
Candida albicans [16] = test: Antifungal activity against Candida albicans cgmcc 2.2086 assessed as inhibition of fungal growth incubated for 48 hrs; assay type: functional
Candida albicans [17] = test: Antifungal activity against Candida albicans SP 3902 assessed as inhibition of fungal growth incubated for 48 hrs; assay type: functional
[18] = Cytotoxicity against mouse RAW264.7 cells assessed as cell survival rate at 128 ug/ml incubated for 4 hrs by MTT assay; assay type: toxicity, cell-based; conditions: dose 128 µg/ml, read-out: Activity

| Structure (SMILES) | Activity (Candida albicans [1]) | Activity (Candida albicans [2]) | Activity (Candida albicans [3]) | Activity (Candida albicans [4]) | Activity (Candida albicans [5]) | Activity (Candida albicans [6]) | MIC (Candida albicans [7]) [µM] | MIC (Candida albicans [8]) [µM] | Activity (HEK-293T) | MIC (Candida albicans [9]) [µM] | hemolysis at 1 h, 128 ug/ml [10] [%] | MIC (Candida albicans [11]) [µM] | MIC (Candida albicans [12]) [µM] | viability at 4 h, 128 ug/ml [13] [%] | MIC (Candida albicans [14]) [µM] | MIC (Candida albicans [15]) [µM] | MIC (Candida albicans [16]) [µM] | MIC (Candida albicans [17]) [µM] | viability at 4 h, 128 ug/ml [18] [%] |
| --- | --- | --- | --- | --- | --- | --- | --- | --- | --- | --- | --- | --- | --- | --- | --- | --- | --- | --- | --- |
| C[C@@H]1[C@H](O)[C@@H](C)/C=C/C=C/C=C/C=C/C=C/C=C/C=C/[C@H](O[C@@H]2O[C@H](C)[C@@H](O)[C@H](N)[C@@H]2O)C[C@@H]2O[C@](O)(C[C@@H](O)C[C@@H](O)[C@H](O)CC[C@@H](O)C[C@@H](O)CC(=O)O[C@H]1C)C[C@H](O)[C@H]2C(=O)O | Active | Active | Active | Active | Active | Active | – | – | – | – | – | – | – | – | – | – | – | – | – |
| CCCC(=O)NCC(=O)NCC(=O)NCC(=O)N[C@@H](CCCCNC(=O)[C@@H]1CCCN1C(=O)[C@H](CCCNC(=N)N)NC(=O)[C@@H]1CCCN1C(=O)[C@@H](N)CCCNC(=N)N)C(=O)N[C@@H](CCCCNC(=O)[C@@H]1CCCN1C(=O)[C@H](CCCNC(=N)N)NC(=O)[C@@H]1CCCN1C(=O)[C@@H](N)CCCNC(=N)N)C(=O)N[C@@H](CCCNC(=N)N)C(=O)N1CCC[C@H]1C(=O)N[C@@H](CCCNC(=N)N)C(=O)N1CCC[C@H]1C(N)=O (Butyryl-GGGK([Pro-Arg-Pro-Arg])K([Pro-Arg-Pro-Arg])RPRP-NH2) | – | – | – | – | – | – | > 128 | > 128 | Non-toxic | > 128 | < 2 | > 128 | > 128 | 95 | > 128 | > 128 | > 128 | > 128 | – |
| CCCCCCCCCCCC(=O)NCC(=O)NCC(=O)NCC(=O)N[C@@H](CCCCNC(=O)[C@@H]1CCCN1C(=O)[C@H](CCCNC(=N)N)NC(=O)[C@@H]1CCCN1C(=O)[C@H](CCCNC(=N)N)NC(=O)[C@@H]1CCCN1C(=O)[C@@H](N)CCCNC(=N)N)C(=O)N[C@@H](CCCCNC(=O)[C@@H]1CCCN1C(=O)[C@H](CCCNC(=N)N)NC(=O)[C@@H]1CCCN1C(=O)[C@H](CCCNC(=N)N)NC(=O)[C@@H]1CCCN1C(=O)[C@@H](N)CCCNC(=N)N)C(=O)N[C@@H](CCCNC(=N)N)C(=O)N1CCC[C@H]1C(=O)N[C@@H](CCCNC(=N)N)C(=O)N1CCC[C@H]1C(=O)N[C@@H](CCCNC(=N)N)C(=O)N1CCC[C@H]1C(N)=O (I: Lauroyl-GGGKKRPRPRP-NH2 / II: H-RPRPRP / III: H-RPRPRP; amide I:4-II:C, I:5-III:C) | – | – | – | – | – | – | 8 (≈ 23.3 µg/mL) | 32 (≈ 93 µg/mL) | Non-toxic | 8 (≈ 23.3 µg/mL) | < 2 | 16 (≈ 46.5 µg/mL) | 32 (≈ 93 µg/mL) | 95 | 32 (≈ 93 µg/mL) | 64 (≈ 186 µg/mL) | 16 (≈ 46.5 µg/mL) | 8 (≈ 23.3 µg/mL) | 50 |
| CCCCCCCC(=O)NCC(=O)NCC(=O)NCC(=O)N[C@@H](CCCCNC(=O)[C@@H]1CCCN1C(=O)[C@H](CCCNC(=N)N)NC(=O)[C@@H]1CCCN1C(=O)[C@H](CCCNC(=N)N)NC(=O)[C@@H]1CCCN1C(=O)[C@@H](N)CCCNC(=N)N)C(=O)N[C@@H](CCCCNC(=O)[C@@H]1CCCN1C(=O)[C@H](CCCNC(=N)N)NC(=O)[C@@H]1CCCN1C(=O)[C@H](CCCNC(=N)N)NC(=O)[C@@H]1CCCN1C(=O)[C@@H](N)CCCNC(=N)N)C(=O)N[C@@H](CCCNC(=N)N)C(=O)N1CCC[C@H]1C(=O)N[C@@H](CCCNC(=N)N)C(=O)N1CCC[C@H]1C(=O)N[C@@H](CCCNC(=N)N)C(=O)N1CCC[C@H]1C(N)=O (I: Octanoyl-GGGKKRPRPRP-NH2 / II: H-RPRPRP / III: H-RPRPRP; amide I:4-II:C, I:5-III:C) | – | – | – | – | – | – | 8 (≈ 22.8 µg/mL) | 8 (≈ 22.8 µg/mL) | Non-toxic | 8 (≈ 22.8 µg/mL) | < 2 | 4 (≈ 11.4 µg/mL) | 16 (≈ 45.6 µg/mL) | 95 | 4 (≈ 11.4 µg/mL) | 64 (≈ 182 µg/mL) | 2 (≈ 5.7 µg/mL) | 16 (≈ 45.6 µg/mL) | – |
| CCCCCCCCCCCC(=O)NCC(=O)NCC(=O)NCC(=O)N[C@@H](CCCCNC(=O)[C@@H]1CCCN1C(=O)[C@H](CCCNC(=N)N)NC(=O)[C@@H]1CCCN1C(=O)[C@@H](N)CCCNC(=N)N)C(=O)N[C@@H](CCCCNC(=O)[C@@H]1CCCN1C(=O)[C@H](CCCNC(=N)N)NC(=O)[C@@H]1CCCN1C(=O)[C@@H](N)CCCNC(=N)N)C(=O)N[C@@H](CCCNC(=N)N)C(=O)N1CCC[C@H]1C(=O)N[C@@H](CCCNC(=N)N)C(=O)N1CCC[C@H]1C(N)=O (Lauroyl-GGGK([Pro-Arg-Pro-Arg])K([Pro-Arg-Pro-Arg])RPRP-NH2) | – | – | – | – | – | – | 64 (≈ 137 µg/mL) | 64 (≈ 137 µg/mL) | Non-toxic | 64 (≈ 137 µg/mL) | < 2 | 32 (≈ 68.7 µg/mL) | 64 (≈ 137 µg/mL) | 95 | 32 (≈ 68.7 µg/mL) | 64 (≈ 137 µg/mL) | 16 (≈ 34.3 µg/mL) | 32 (≈ 68.7 µg/mL) | – |
| CCCCCCCC(=O)NCC(=O)NCC(=O)NCC(=O)N[C@@H](CCCCNC(=O)[C@@H]1CCCN1C(=O)[C@H](CCCNC(=N)N)NC(=O)[C@@H]1CCCN1C(=O)[C@@H](N)CCCNC(=N)N)C(=O)N[C@@H](CCCCNC(=O)[C@@H]1CCCN1C(=O)[C@H](CCCNC(=N)N)NC(=O)[C@@H]1CCCN1C(=O)[C@@H](N)CCCNC(=N)N)C(=O)N[C@@H](CCCNC(=N)N)C(=O)N1CCC[C@H]1C(=O)N[C@@H](CCCNC(=N)N)C(=O)N1CCC[C@H]1C(N)=O (Octanoyl-GGGK([Pro-Arg-Pro-Arg])K([Pro-Arg-Pro-Arg])RPRP-NH2) | – | – | – | – | – | – | > 128 | > 128 | Non-toxic | > 128 | < 2 | > 128 | > 128 | 95 | > 128 | > 128 | > 128 | > 128 | – |
| OC(Cn1cncn1)(Cn1cncn1)c1ccc(F)cc1F [FLUCONAZOLE] | – | – | – | – | – | – | > 128 | 8 (≈ 2.45 µg/mL) | – | 2 (≈ 0.613 µg/mL) | – | 2 (≈ 0.613 µg/mL) | 2 (≈ 0.613 µg/mL) | – | 2 (≈ 0.613 µg/mL) | 4 (≈ 1.23 µg/mL) | 4 (≈ 1.23 µg/mL) | 4 (≈ 1.23 µg/mL) | – |
